Data: patent US12414952B2 (Merck Sharp & Dohme LLC, priority 2018, dated 2025)

How the values were obtained:
[1] = target: human A2b adenosine receptor (Homo sapiens (Human), UniProt P29275); test: A2b binding affinity, radioligand filtration binding assay; settings: tritiated proprietary A2b antagonist, HEK293 membranes
Procedure: Measurement of A2b Binding Affinity
The reported affinity of the compounds of the invention for the human A2b adenosine receptor was determined experimentally using a radioligand filtration binding assay. This assay measures the amount of binding of a tritiated proprietary A2b receptor antagonist, in the presence and absence of a compound of the invention, to membranes made from HEK293 cells recombinantly expressing the human A2b adenosine receptor (Perkin Elmer, Cat. No. ES-013-C).
The filter plate was incubated for at least 1 h at 55° C. and allowed to dry. The bottom of the filter plate was then sealed with backing tape. […] The plates were then incubated for at least 20 min, and then the amount of radioactivity remaining in each well was determined using a TopCount® (Perkin Elmer) scintillation counter. After normalization to total and non-specific binding, the percent effect at each compound concentration was calculated. The plot of percent effect versus the log of compound concentration was analyzed electronically using a 4-parameter logistic fit based on the Levenberg-Marquardt algorithm to generate IC50 values.

[2] = target: human A2a adenosine receptor (Homo sapiens (Human), UniProt P29274); test: A2a binding affinity using radioligand binding, Method (A); settings: Method (A): [3H]SCH58261 filtration binding
Summary of the method: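 Membranes from HEK293 or CHO cells expressing human A2a were preincubated with compound for 15–30 min at room temperature. [3H]SCH58261 was then added (4 nM working dilution) in 50 mM Tris pH 7.4, 10 mM MgCl2, 0.005% Tween20 for 60 min at room temperature. Bound radioactivity after filtration was normalised to total and non-specific binding, and IC50 came from 4-parameter logistic fits.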

Chain of human A2b adenosine receptor (P29275 whole entry): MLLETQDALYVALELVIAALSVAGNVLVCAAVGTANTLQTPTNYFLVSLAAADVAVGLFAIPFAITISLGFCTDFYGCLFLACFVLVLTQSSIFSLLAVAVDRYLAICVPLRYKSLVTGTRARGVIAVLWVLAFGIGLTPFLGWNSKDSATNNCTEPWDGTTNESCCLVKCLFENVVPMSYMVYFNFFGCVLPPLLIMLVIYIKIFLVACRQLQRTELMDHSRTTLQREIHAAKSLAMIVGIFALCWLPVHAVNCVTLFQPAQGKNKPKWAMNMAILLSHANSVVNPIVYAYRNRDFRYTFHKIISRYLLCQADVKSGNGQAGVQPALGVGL
Chain of human A2a adenosine receptor (P29274 whole entry): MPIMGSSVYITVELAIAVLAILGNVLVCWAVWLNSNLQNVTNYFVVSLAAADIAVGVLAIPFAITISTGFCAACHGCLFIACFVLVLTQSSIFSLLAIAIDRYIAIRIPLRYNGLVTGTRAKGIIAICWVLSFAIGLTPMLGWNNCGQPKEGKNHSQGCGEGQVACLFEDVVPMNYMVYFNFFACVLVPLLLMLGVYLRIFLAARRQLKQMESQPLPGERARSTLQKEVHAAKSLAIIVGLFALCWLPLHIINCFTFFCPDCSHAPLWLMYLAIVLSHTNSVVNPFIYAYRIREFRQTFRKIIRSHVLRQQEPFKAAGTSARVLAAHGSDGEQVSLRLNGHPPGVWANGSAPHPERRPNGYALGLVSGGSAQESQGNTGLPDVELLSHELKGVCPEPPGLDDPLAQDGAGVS

SMILES	IC50 [1]	IC50 [2]
Cc1c(-c2ncco2)nc(N)n2nc(CCN3CCc4c(nnn4C4CC(F)(F)C4)C3)nc12 [Example 17.14, 2-(2-(1-(3,3-difluorocyclobutyl)-1,4,6,7-tetrahydro-5H-[1,2,3]triazolo[4,5-c]pyridin-5-yl)ethyl)-8-methyl-7-(oxazol-2-yl)-[1,2,4]triazolo[1,5-c]pyrimidin-5-amine]	41.7 nM	0.5 nM
CC(C)n1nnc2c1CCN(CCc1nc3c(C(F)(F)F)c(-c4cccc(F)c4)nc(N)n3n1)C2 [Example 23.7, 7-(3-fluorophenyl)-2-(2-(1-isopropyl-1,4,6,7-tetrahydro-5H-[1,2,3]triazolo[4,5-c]pyridin-5-yl)ethyl)-8-(trifluoromethyl)-[1,2,4]triazolo[1,5-c]pyrimidin-5-amine]	52.8 nM	0.9 nM
Cc1c(-c2ccc(F)c(F)c2F)nc(N)c2nc(Cc3ccccc3)nn12 [Example 3.40]	315 nM	280 nM
Cc1c(-c2cc(F)ccc2F)nc(N)c2nc(Cc3ncccc3F)nn12 [Example 4.8]	9.3 nM	18.7 nM
Cc1cccnc1Cc1nc2c(N)nc(-c3ncco3)c(C)n2n1 [Example 8.3]	29.9 nM	1.3 nM
Cc1c(-c2ncco2)nc(N)n2nc(CCN3Cc4nnn(C(C)C)c4C(C)C3)nc12 (single isomer, unassigned) [Example 17.8-1, (R or S)-2-(2-(1-isopropyl-7-methyl-1,4,6,7-tetrahydro-5H-[1,2,3]triazolo[4,5-c]pyridin-5-yl)ethyl)-8-methyl-7-(oxazol-2-yl)-[1,2,4]triazolo[1,5-c]pyrimidin-5-amine]	1680 nM	0.7 nM
Cc1c(-c2ncco2)nc(N)n2nc(CCN3CCc4c(nnn4C4CC4)C3)nc12 [Example 1.16]	111 nM	0.3 nM
Cc1ccc(-c2nc(N)c3nc(Cc4ccccc4)nn3c2C)cc1F [Example 3.37]	3710 nM	1000 nM
Cc1c(-c2ccc(C#N)c(F)c2)nc(N)c2nc(Cc3ccccc3)nn12 [Example 3.42]	1730 nM	499 nM
Cc1c(-c2ncco2)nc(N)n2nc(CN(Cc3ccc(C(C)(C)O)cc3)CC(F)F)nc12 [Example 13.1, 2-(4-((((5-amino-8-methyl-7-(oxazol-2-yl)-[1,2,4]triazolo[1,5-c]pyrimidin-2-yl)methyl)(2,2-difluoroethyl)amino)methyl)phenyl)propan-2-ol]	489 nM	0.4 nM
Cc1c(-c2ncco2)nc(N)n2nc(CCN3CCc4c(cnn4C4CCC4)C3)nc12 [Example 1.13]	144 nM	1 nM
COC1(c2ccc(Cc3nc4c(C)c(-c5ncco5)nc(N)n4n3)cc2)CCC1 [Example 6.4, 2-(4-(1-methoxycyclobutyl)benzyl)-8-methyl-7-(oxazol-2-yl)-[1,2,4]triazolo[1,5-c]pyrimidin-5-amine]	5.7 nM	4.9 nM
Cc1c(-c2ncco2)nc(N)n2nc(CCN3CCc4nn(C5CCC5)cc4C3)nc12 [Example 1.14]	399 nM	6.7 nM
COc1ncc(-c2nc(N)c3nc(Cc4ccccc4)nn3c2C)cc1Cl [Example 3.27]	145 nM	11 nM
Cc1cccnc1Cc1nc2c(N)nc(-c3cc(F)ccc3F)c(C)n2n1 [Example 4.3, 6-(2,5-difluorophenyl)-5-methyl-2-((3-methylpyridin-2-yl)methyl)-[1,2,4]triazolo[1,5-a]pyrazin-8-amine]	47.3 nM	9.9 nM
Cc1c(-c2ncco2)nc(N)c2nc(Cc3ncccc3F)nn12 [Example 8.4]	18.6 nM	1.3 nM
Cc1c(-c2ncco2)nc(N)n2nc(CCN3CCc4c(cnn4C4CCCC4)C3)nc12 [Example 17.12, 2-(2-(1-cyclopentyl-1,4,6,7-tetrahydro-5H-pyrazolo[4,3-c]pyridin-5-yl)ethyl)-8-methyl-7-(oxazol-2-yl)-[1,2,4]triazolo[1,5-c]pyrimidin-5-amine]	45 nM	1.2 nM

SMILES	IC50 [1]	IC50 [2]
Cc1c(-c2ncco2)nc(N)n2nc(CCN3CCc4c(nnn4CC(C)(C)O)C3)nc12 [Example 1.18]	694 nM	18.1 nM
Cc1c(-c2cc(F)ccc2F)nc(N)c2nc(Cc3cccc4c3ncn4CC(F)F)nn12 [Example 4.5]	31.8 nM	23.8 nM
Cc1c(-c2ncco2)nc(N)c2nc(Cc3ccc(C(C)(C)O)cc3)nn12 [Example 6.7, 2-(4-((8-amino-5-methyl-6-(oxazol-2-yl)-[1,2,4]triazolo[1,5-a]pyrazin-2-yl)methyl)phenyl)propan-2-ol]	30.1 nM	15.7 nM
Cc1c(-c2cccc(F)c2Cl)nc(N)c2nc(Cc3ccccc3)nn12 [Example 3.41]	747 nM	289 nM
COc1cc(F)cc(-c2nc(N)c3nc(Cc4ccccc4)nn3c2C)c1 [Example 3.31]	134 nM	6.2 nM
Cc1c(-c2ncco2)nc(N)c2nc(Cc3cccc(C(C)(C)O)c3)nn12 [Example 6.8, 2-(3-((8-amino-5-methyl-6-(oxazol-2-yl)-[1,2,4]triazolo[1,5-a]pyrazin-2-yl)methyl)phenyl)propan-2-ol]	330 nM	1.2 nM
Cc1c(-c2ncco2)nc(N)n2nc(CCN3CCn4c(cnc4C4CC(F)(F)C4)C3)nc12 [Example 17.2, 2-(2-(3-(3,3-difluorocyclobutyl)-5,6-dihydroimidazo[1,5-a]pyrazin-7(8H)-yl)ethyl)-8-methyl-7-(oxazol-2-yl)-[1,2,4]triazolo[1,5-c]pyrimidin-5-amine]	20.3 nM	0.4 nM
Cc1c(-c2ccn(C)n2)nc(N)c2nc(Cc3ccccc3)nn12 [Example 3.46]	82.6 nM	4.4 nM
Cc1c(-c2ncco2)nc(N)c2nc(Cc3cccc4c3ncn4CC(C)(C)O)nn12 [Example 4.9]	1.2 nM	0.2 nM
Cc1c(-c2cc(F)cc(F)c2)nc(N)c2nc(Cc3ccccc3)nn12 [Example 3.25]	19.8 nM	1.6 nM
Cc1c(-c2cncc(Cl)c2)nc(N)c2nc(Cc3ccccc3)nn12 [Example 3.32]	147 nM	13.1 nM
Cc1cc2n(n1)CCN(CCc1nc3c(C)c(-c4ncco4)nc(N)n3n1)C2 [Example 17.6, 8-methyl-2-(2-(2-methyl-6,7-dihydropyrazolo[1,5-a]pyrazin-5(4H)-yl)ethyl)-7-(oxazol-2-yl)-[1,2,4]triazolo[1,5-c]pyrimidin-5-amine]	677 nM	16.3 nM
Cc1c(-c2ccc(F)c(Cl)c2)nc(N)c2nc(Cc3ccccc3)nn12 [Example 3.33]	117 nM	27.2 nM
Cc1c(-c2cccc(Cl)c2F)nc(N)c2nc(Cc3ccccc3)nn12 [Example 3.30]	46.2 nM	7.6 nM
COc1c(F)cc(F)cc1-c1cc2nc(CCN3CCn4c(cnc4C(C)C)C3)nn2c(N)n1 [Example 2.9]	248 nM	636 nM
Cc1c(-c2ncco2)nc(N)n2nc(CCN3CCn4c(cnc4C(C)C)C3)nc12 [Example 1.10]	16.2 nM	2.1 nM
CC(C)c1ncc2n1CCN(CCc1nc3cc(-c4cccc(F)c4)nc(N)n3n1)C2 [Example 2.13]	95.5 nM	35.4 nM
